Test results taken from paper PMC4774911, “Biochemical Screening of Five Protein Kinases from Plasmodium falciparum against 14,000 Cell-Active Compounds” (PLoS ONE, 2016).
Values joined by “and” are separate entries in the source; they are usually repeats but may differ in a detail not shown here. Equal entries are not always repeated.

Key:
Experiment in all cases: biochemical
Parameters in all cases: endogenous in cells; host or cells: K562 cell extract; species or system K562 (extract); replicate k of n = 2 (each experiment ID is one independent experiment; two experiment IDs per compound)
Conditions in all cases: read-out: KDapp
CDK10 = CDK10 (Homo sapiens, UniProt Q15131)
CDK10, sequence (Q15131 whole entry): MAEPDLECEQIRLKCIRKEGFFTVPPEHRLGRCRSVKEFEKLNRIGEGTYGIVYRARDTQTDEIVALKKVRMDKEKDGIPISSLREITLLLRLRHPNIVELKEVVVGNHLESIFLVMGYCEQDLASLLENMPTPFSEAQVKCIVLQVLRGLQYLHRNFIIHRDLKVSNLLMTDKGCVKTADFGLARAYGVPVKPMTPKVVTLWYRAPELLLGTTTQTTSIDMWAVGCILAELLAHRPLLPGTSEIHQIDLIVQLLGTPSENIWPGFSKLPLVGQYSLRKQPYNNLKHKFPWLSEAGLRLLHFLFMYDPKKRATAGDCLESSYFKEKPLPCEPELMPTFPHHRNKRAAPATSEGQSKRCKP

STK4 = target: T1, STK4 (Homo sapiens, UniProt Q13043)
T1 sequence (Q13043 1-487): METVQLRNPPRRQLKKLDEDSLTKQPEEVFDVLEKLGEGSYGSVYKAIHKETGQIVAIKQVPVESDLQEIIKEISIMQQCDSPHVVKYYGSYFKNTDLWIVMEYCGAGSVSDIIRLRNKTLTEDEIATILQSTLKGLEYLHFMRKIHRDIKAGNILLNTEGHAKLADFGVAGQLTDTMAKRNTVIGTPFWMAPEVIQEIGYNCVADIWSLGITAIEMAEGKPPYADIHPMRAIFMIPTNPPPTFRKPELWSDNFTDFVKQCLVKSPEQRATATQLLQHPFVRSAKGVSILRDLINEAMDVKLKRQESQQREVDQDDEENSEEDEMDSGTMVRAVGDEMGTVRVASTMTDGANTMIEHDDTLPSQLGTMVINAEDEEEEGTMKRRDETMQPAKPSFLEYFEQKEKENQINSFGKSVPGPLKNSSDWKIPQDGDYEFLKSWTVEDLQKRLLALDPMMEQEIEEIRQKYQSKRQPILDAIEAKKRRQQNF

AXL = target: T2, AXL (Homo sapiens, UniProt P30530)
T2 sequence (P30530 1-894): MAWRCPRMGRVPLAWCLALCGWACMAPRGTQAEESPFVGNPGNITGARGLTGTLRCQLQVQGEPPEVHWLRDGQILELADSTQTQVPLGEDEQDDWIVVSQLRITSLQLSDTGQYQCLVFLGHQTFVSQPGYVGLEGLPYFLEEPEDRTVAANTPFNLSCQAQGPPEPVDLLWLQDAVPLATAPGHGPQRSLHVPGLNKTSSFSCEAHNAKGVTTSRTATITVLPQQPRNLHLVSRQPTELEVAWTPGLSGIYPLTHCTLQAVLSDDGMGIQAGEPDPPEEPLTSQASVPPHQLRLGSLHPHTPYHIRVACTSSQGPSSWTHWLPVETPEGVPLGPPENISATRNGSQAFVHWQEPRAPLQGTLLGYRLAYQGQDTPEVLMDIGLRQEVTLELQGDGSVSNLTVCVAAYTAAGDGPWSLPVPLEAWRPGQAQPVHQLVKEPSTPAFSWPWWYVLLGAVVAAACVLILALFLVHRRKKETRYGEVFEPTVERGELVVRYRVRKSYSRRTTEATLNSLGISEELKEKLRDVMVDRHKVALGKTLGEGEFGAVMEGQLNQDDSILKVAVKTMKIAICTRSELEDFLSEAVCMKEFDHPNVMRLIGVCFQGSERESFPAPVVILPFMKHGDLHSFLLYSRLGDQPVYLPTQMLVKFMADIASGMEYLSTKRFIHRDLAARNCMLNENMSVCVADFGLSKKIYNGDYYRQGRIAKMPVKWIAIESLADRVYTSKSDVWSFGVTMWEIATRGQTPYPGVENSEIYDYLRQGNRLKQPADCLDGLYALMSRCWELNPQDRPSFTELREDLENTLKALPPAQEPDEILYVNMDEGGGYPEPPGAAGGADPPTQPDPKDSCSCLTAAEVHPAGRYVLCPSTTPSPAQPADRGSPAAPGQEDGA

TTK = target: T3, TTK (Homo sapiens, UniProt P33981)
T3 sequence (P33981 1-857): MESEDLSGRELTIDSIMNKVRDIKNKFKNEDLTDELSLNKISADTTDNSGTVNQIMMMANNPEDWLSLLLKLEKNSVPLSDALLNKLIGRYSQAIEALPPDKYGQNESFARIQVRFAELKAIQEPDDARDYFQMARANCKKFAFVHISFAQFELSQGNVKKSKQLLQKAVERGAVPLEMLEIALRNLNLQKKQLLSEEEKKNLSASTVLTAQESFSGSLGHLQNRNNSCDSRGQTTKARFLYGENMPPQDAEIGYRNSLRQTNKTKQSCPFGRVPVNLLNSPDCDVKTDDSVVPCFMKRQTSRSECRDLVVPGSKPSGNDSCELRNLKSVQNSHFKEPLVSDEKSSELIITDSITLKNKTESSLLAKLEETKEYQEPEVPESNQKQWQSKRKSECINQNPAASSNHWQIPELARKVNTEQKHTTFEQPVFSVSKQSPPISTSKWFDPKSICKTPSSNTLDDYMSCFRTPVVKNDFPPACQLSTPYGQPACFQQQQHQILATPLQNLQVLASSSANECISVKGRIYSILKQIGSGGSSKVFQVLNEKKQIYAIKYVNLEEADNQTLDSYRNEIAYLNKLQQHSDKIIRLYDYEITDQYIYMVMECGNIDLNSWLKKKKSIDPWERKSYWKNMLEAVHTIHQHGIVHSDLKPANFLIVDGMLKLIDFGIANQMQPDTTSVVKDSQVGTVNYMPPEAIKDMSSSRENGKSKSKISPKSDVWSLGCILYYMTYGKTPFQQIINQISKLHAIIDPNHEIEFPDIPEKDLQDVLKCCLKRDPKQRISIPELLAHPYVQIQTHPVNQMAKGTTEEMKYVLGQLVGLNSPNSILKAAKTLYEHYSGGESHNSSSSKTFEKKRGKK

Row | SMILES | Kd (CDK10) [nM] | Kd (STK4) | Kd (AXL) | Kd (TTK)
1 | CN(C)CC(O)COc1ccc(Nc2ncc([N+](=O)[O-])c(Nc3ccccc3O)n2)cc1.O=C(O)C(F)(F)F (stereo not shown) [TCMDC-141399] | 630 | – | – | –
2 | CN1CCN(c2ccc(Nc3ncc(C#N)c(Nc4ccccc4C(N)=O)n3)cc2)CC1.Cl [TCMDC-134116] | – | 121 nM and 140 nM | 266 nM and 293 nM | 439 nM and 357 nM
